In patent US20250262212A1, “COMPOSITION FOR SUPPRESSING PROLIFERATION OF CANCER STEM CELLS” (Chemiteras, Inc., priority 2022, published 2025):

Test system: cancer stem cells (12037NS)
Test: Proliferation suppressive effect on cancer stem cells (survival rate, WST-8 / Cell Counting Kit-8)
Format: cell-based
Details: for Survival Rate(%) of cancer stem cells: DMSO control = 100; for proliferation suppressive effect on cancer stem cells (in words): 10 μM, 3 days, verbal assessment
Protocol: The proliferation suppressive effect of the triazolohalopyrimidine compounds on cancer stem cells was evaluated as follows.
The proliferation suppressive effect of triazolohalopyrimidine compounds on cancer stem cells was evaluated using commercially available anticancer agents and known compounds known to have antitumor effect.
12037NS was used as cancer stem cells. 12037NS are the cells obtained by isolation and purification according to the method referred in Nature 432, No. 18, 396-401 (2004). 12037NS cells are susceptible to cytotoxicity by DMSO (dimethylsulfoxide) used for dilution of test compounds. Accordingly, DMSO was used as control.
Used cancer stem cells were 12037NS which are cultivated cancer stem cells. 12037NS are the cells obtained by isolation and purification according to the method referred in Nature 432, No. 18, 396-401 (2004).
Cancer stem cells (12037NS) were seededat 3.0×10^3 cells/well in a 96-well plate using DMEM (Dulbeco's Modified Eagle Medium).
Test compounds shown in Table 3 were diluted with DMSO and then further diluted with PBS (phosphate buffered saline) to prepare test solutions. The test solution was added to each well to become a final concentration of 10 μM. For controls, DMSO was added to the wells to become a final concentration of 0.1% (v/v).
After adding the test solution, the plate was incubated at 37° C. in a 5% CO2 environment for 3 days.
After incubation, water-soluble tetrazonium salt WST-8 (“Cell Counting Kit-8” coloring reagent; manufactured by Dojindo Laboratories) was added at 10 μL/well to each well and the plate was placed in a 37° C., 5% CO2 environment, and incubated for 2 hours.
The absorbance at 450 nm wavelength was measured for the culture solution in each well of the plate after incubation. WST-8 is reduced by intracellular dehydrogenase to produce water-soluble formazan. The number of living cells can be measured by measuring the absorbance of this formazan at 450 nm.
The survival rate of cancer stem cells was determined by comparing the measured number of living cells with the number of seeded cells.
In the same manner as in [Test Example 1], the survival rate of cancer stem cells was determined for the test compounds shown in Table 4. Triazolohalopyrimidine compound (I)g means 2-(4-hydroxyphenyl)-5-chloro-8-methyl[1.2.4]triazolo[1,5-c]pyrimidine.

[1] = Test Example 1, test compound 10 μM, 3 days incubation
[2] = Test Example 2, same manner as Test Example 1 (10 μM, 3 days)

Row | Structure (SMILES) | Survival Rate(%) of cancer stem cells [1] [%] | proliferation suppressive effect on cancer stem cells (in words) | Survival Rate(%) of cancer stem cells [2] [%]
1 | O=c1[nH]cc(F)c(=O)[nH]1 [5-Fluorouracil] | 80 | – | –
2 | Cc1cnc(Cl)n2nc(-c3ccc(Br)cc3)nc12 [Compound (I)d, 2-(4-bromophenyl)-5-chloro-8-methyl[1.2.4]triazolo[1,5-c]pyrimidine] | – | significantly superior to those of commercially available anticancer agents | –
3 | Cc1cnc(Cl)n2nc(-c3ccc(Cl)c(Cl)c3)nc12 [Compound (I)f, 2-(3,4-dichlorophenyl)-5-chloro-8-methyl[1.2.4]triazolo[1,5-c]pyrimidine] | – | significantly superior to those of commercially available anticancer agents | –
4 | Cc1cnc(Cl)n2nc(-c3ccc(O)cc3)nc12 [Compound (I)g, 2-(4-hydroxyphenyl)-5-chloro-8-methyl[1.2.4]triazolo[1,5-c]pyrimidine] | – | – | 45
5 | Cn1nnc2c(C(N)=O)ncn2c1=O [Temozolomide] | 65 | – | 75
